Values of other authors in patent US10981914B2, “Toll-like receptor 7 (TLR7) agonists having a tricyclic moiety, conjugates thereof, and methods and uses therefor” (BRISTOL-MYERS SQUIBB COMPANY, priority 2017, dated 2021).

System: IFN-α
Conditions: as measured by IFN-α induction

Structure (SMILES): CCCCOc1nc(N)c2c(n1)N(Cc1cccc(CN3CCCC3)c1)CC(=O)N2 [Vesatolimod, vesatolimod]
- potency, fold less than that of the corresponding purine-8-one compound: 100 ×
